Data from US4591595A, “2-guanidino-4-(2-methyl-4-imidazolyl)thiazoles in the treatment of rheumatoid arthritis” (Pfizer Inc., priority 1985, dated 1986).
Like-named read-outs stand apart in the source and are kept apart here.

Test system: Adjuvant-Induced Arthritis
Assay: Adjuvant-induced arthritis in the rat (Mycobacterium butyricum, subplantar; inhibition of hindpaw edema, primary and secondary lesions)
Assay type: in vivo, rat (adult male Wistar-Lewis)
Conditions: for % Inhibition of Lesions, Secondary (mean ± SE): contralateral non-injected paw, day 16; for % Inhibition of Lesions, Primary (mean ± SE): injected paw, day 4; for ED50: Rattus norvegicus
Procedure: Adjuvant arthritis was induced in adult male Wistar-Lewis rats weighing 250-270 grams each (Charles River Breeding Laboratories, Kingston, N.Y.) by a single subplantar injection of 1 mg of Mycobacterium butyricum (Difco Laboratories, Lot #0640-33) suspended in 0.1 ml mineral oil as described by Walz et al. (Proc. Soc. Exptl. Biol. Med., 136: 907-910, 1971). Seven rats were used in each group. Orally administered drugs were dissolved in water and dilute sodium hydroxide was added as necessary to ensure solution; control groups received only water. After neutralization of the solutions to pH 7.0, a volume of 10 ml/kg body weight was given by intubation with a blunt end, 18-gauge needle. Doses of each drug were given daily starting 1 day before the injection of adjuvant and continuing until 16 days after the induction of the arthritic lesion.
The initial hindpaw volumes (Vi) were measured on the day of adjuvant injection and the resultant swelling was determined on the injected paw (Vf - Vi) on the 4th day following the adjuvant injection. This was considered to be the primary response or lesion. The swelling (Vf - Vi) measured 16 days after adjuvant injection on the contralateral, non-injected hindpaw constituted the secondary response or lesion. The rats were weighed at the start of the experiments as well as 4 and 16 days after the induction of the disease. Percent inhibition of edema was calculated according to the following formula: [formula]

## Cc1nc(-c2csc(NC(=N)N)n2)c[nH]1.Cl.Cl [Compound A, 2-Guanidino-4-(2-methyl-4-imidazolyl)thiazole Dihydrochloride]
Compound alone
  effect on the course of adjuvant arthritis in rats (in words): beneficial effect
Oral 1.0 mg/kg daily
  % Inhibition of Lesions, Secondary (mean ± SE): 3 (3) %
  % Inhibition of Lesions, Primary (mean ± SE): 0 (6) %
Oral 3.3 mg/kg daily
  % Inhibition of Lesions, Secondary (mean ± SE): 28 (4) %
  % Inhibition of Lesions, Primary (mean ± SE): 0 (3) %
Oral 10.0 mg/kg daily
  % Inhibition of Lesions, Secondary (mean ± SE): 27 (3) %
  % Inhibition of Lesions, Primary (mean ± SE): 2 (2) %
oral, linear regression of Table I data, secondary lesions
  ED50 (in words): no reliable ED50 could be extrapolated
oral, primary lesions
  activity against primary lesions (in words): no significant activity
oral, secondary lesions
  activity against secondary lesions (in words): significant activity

## CN1C(C(=O)Nc2ccccn2)=C(O)c2ccccc2S1(=O)=O [Piroxicam, reference compound]
oral, linear regression of Table I data, primary lesions, read-out: ED50 against primary lesions
  ED50: 2.6 mg/kg
oral, linear regression of Table I data, secondary lesions, read-out: ED50 against secondary lesions
  ED50: 0.45 mg/kg
Oral 0.10 mg/kg daily
  % Inhibition of Lesions, Secondary (mean ± SE): 26 (2) %
  % Inhibition of Lesions, Primary (mean ± SE): 29 (4) %
Oral 0.33 mg/kg daily
  % Inhibition of Lesions, Secondary (mean ± SE): 43 (4) %
  % Inhibition of Lesions, Primary (mean ± SE): 33 (8) %
Oral 1.0 mg/kg daily
  % Inhibition of Lesions, Secondary (mean ± SE): 64 (3) %
  % Inhibition of Lesions, Primary (mean ± SE): 45 (7) %
